This is an account of results in paper doi:10.1101/2020.10.22.350827v1 (biorxiv, 2020).

The target in assay [1] is T1, Nluc-A1R (adenosine A1 receptor) L253T (Homo sapiens, UniProt P30542, L253T).
T1 sequence (P30542 1-326 L253T): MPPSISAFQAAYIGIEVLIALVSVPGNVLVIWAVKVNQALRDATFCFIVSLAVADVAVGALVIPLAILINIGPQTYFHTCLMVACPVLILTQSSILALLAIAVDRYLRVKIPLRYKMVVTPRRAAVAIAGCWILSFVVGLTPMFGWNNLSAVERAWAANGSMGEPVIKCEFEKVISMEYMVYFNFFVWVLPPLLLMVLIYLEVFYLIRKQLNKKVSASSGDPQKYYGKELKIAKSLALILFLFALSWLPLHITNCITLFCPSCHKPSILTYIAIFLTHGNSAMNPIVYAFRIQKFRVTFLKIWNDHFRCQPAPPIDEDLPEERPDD
Briefly: cell-based. On the set-up: species or system HEK 293.

Assay [2] has as its target T2, Nluc-A1R (adenosine A1 receptor) Y12A (Homo sapiens, UniProt P30542, Y12A).
T2 sequence (P30542 1-326 Y12A): T1 sequence (P30542 1-326 L253T) with Y12A, T253L
Briefly: cell-based. More on the design: species or system HEK 293.

Where a chain is given by its changes, count along the chain named. pKi: −log10 of the molar value.

The term pKi denotes the negative decadic logarithm of the Ki, by convention in mol/L. With `OC[C@H]1O[C@@H](n2cnc3c(N[C@@H]4CCC[C@H]4O)ncnc32)[C@H](O)[C@@H]1O` [compound 6, HOCPA], the pKi in assay [1] is 5.69; in assay [2] it was 5.78.
